Two sequences from US20070128217A1 (priority 2003, published 2007) can be followed below.

The subject of assay [1] is antibodies in sera from SARS patients (sera 1a, 1b, 2, 6, 37, 62, London, SARS-yellow, SARS-green). Format: binding, human. Set-up: Binding of serum 6 to linear peptides of protein X1 of SARS-CoV Urbani / Binding of serum 37 to linear peptides of protein X1 of SARS-CoV Urbani / Binding of serum 6 to looped/cyclic peptide (PEPSCAN-ELISA) / Binding of serum 37 to looped/cyclic peptide (PEPSCAN-ELISA) / Binding of serum 37 to looped/cyclic peptides of protein X1 of SARS-CoV Urbani / Binding of serum 6 to linear peptides of protein X2 / Binding of serum 37 to linear peptides of protein X2 / Binding of serum 37 to looped/cyclic peptides of protein X2 of SARS-CoV Urbani / Binding of serum 6 to linear peptides of protein M of SARS-CoV Urbani / Binding of serum 37 to linear peptides of protein M of SARS-CoV Urbani / Binding of serum 6 to looped/cyclic peptides of protein M of SARS-CoV Urbani / Binding of serum 37 to looped/cyclic peptides of protein M of SARS-CoV Urbani / Binding of serum 6 to linear peptides of protein X3 of SARS-CoV Urbani / Binding of serum 37 to linear peptides of protein X3 of SARS-CoV Urbani / Binding of serum 37 to looped/cyclic peptides of protein X3 of SARS-CoV Urbani / Binding of serum 6 to linear peptides of protein X4 of SARS-CoV Urbani / Binding of serum 37 to linear peptides of protein X4 of SARS-CoV Urbani / Binding of serum 37 to looped/cyclic peptides of protein X4 of SARS-CoV Urbani / Binding of serum 6 to linear peptides of protein X5 of SARS-CoV Urbani / Binding of serum 37 to linear peptides of protein X5 of SARS-CoV Urbani / Binding of serum 37 to looped/cyclic peptides of protein X5 of SARS-CoV Urbani / Binding of serum 6 to linear peptides of protein N of SARS-CoV Urbani / Binding of serum 37 to linear peptides of protein N of SARS-CoV Urbani / Binding of serum 6 to linear peptide (PEPSCAN-ELISA) / Binding of serum 1a to looped/cyclic peptides of protein N of SARS-CoV Urbani / Binding of serum 1b to looped/cyclic peptides of protein N of SARS-CoV Urbani / Binding of serum 2 to looped/cyclic peptides of protein N of SARS-CoV Urbani / Binding of serum 6 to looped/cyclic peptides of protein N of SARS-CoV Urbani / Binding of serum 37 to looped/cyclic peptides of protein N of SARS-CoV Urbani / Binding of serum 62 to looped/cyclic peptides of protein N of SARS-CoV Urbani / Binding of serum London to looped/cyclic peptides of protein N of SARS-CoV Urbani / Binding of serum SARS-green to looped/cyclic peptides of protein N of SARS-CoV Urbani: unit not given here.

The test system of assay [2] is control sera (pooled serum of ten healthy LUMC hospital workers; commercial negative donor pooled serum from the Dutch bloodbank). Format: binding, human. The arrangement: Binding of Control serum LUMC to linear peptides / Binding of Control serum Blood-bank to linear peptides / Binding of Control serum LUMC to looped peptides / Binding of Control Serum Blood-Bank to Looped peptides / Binding of Control serum LUMC to linear peptides of the protein M of SARS-CoV Urbani / Binding of Control serum Blood-bank to linear peptides of the protein M of SARS-CoV Urbani / Binding of Control serum LUMC to looped peptides of the protein M of SARS-CoV Urbani / Binding of Control Serum Blood-Bank to Looped peptides of the protein M of SARS-CoV Urbani: unit not given here.

Assay [3] relates to rabbit serum obtained by immunizing a rabbit with the SARS-CoV strain Frankfurt 1. Format: binding. Set-up: Binding of a rabbit serum to linear peptides / Binding of a rabbit serum to looped peptides / Rabbit serum linear peptides / Rabbit serum looped peptides / Binding of a rabbit serum to linear peptides of protein N of SARS-CoV Urbani (Rabbit serum linear peptides) / Binding of a rabbit serum to looped/cyclic peptides of protein N of SARS-CoV Urbani (Rabbit serum looped peptides): unit not given here.

Take LFIRQEEVQQELYSP: in assay [1], the “Binding of serum 1a to linear peptides of protein X4 of SARS-CoV Urbani” value is reported as 0.8, the “Binding of serum 1a to looped/cyclic peptides of protein X4 of SARS-CoV Urbani” value is recorded as 0.7, the “Binding of serum 1b to linear peptides of protein X4 of SARS-CoV Urbani” value was 0.7 and the “Binding of serum 1b to looped/cyclic peptides of protein X4 of SARS-CoV Urbani” value is 0.5. In assay [1], the “Binding of serum 2 to linear peptides of protein X4 of SARS-CoV Urbani” value came out at 0.6, the “Binding of serum 2 to looped/cyclic peptides of protein X4 of SARS-CoV Urbani” value came to 0.7, the “Binding of serum 6 to linear peptides of protein X4 of SARS-CoV Urbani” value came out at 0.5 and the “Binding of serum 37 to linear peptides of protein X4 of SARS-CoV Urbani” value is listed as 0.7. Besides, in assay [1], the “Binding of serum 37 to looped/cyclic peptides of protein X4 of SARS-CoV Urbani” value worked out at 0.7, the “Binding of serum 62 to linear peptides of protein X4 of SARS-CoV Urbani” value is listed as 0.8, the “Binding of serum 62 to looped/cyclic peptides of protein X4 of SARS-CoV Urbani” value was 0.8 and the “Binding of serum London to linear peptides of protein X4 of SARS-CoV Urbani” value is 0.8. Moreover, in assay [1], the “Binding of serum London to looped/cyclic peptides of protein X4 of SARS-CoV Urbani” value is on record as 0.3, the “Binding of serum SARS-green to linear peptides of protein X4 of SARS-CoV Urbani” value came out at 0.6, the “Binding of serum SARS-green to looped/cyclic peptides of protein X4 of SARS-CoV Urbani” value turned out to be 0.8 and the “Binding of serum SARS-yellow to linear peptides of protein X4 of SARS-CoV Urbani” value came to 0.7. The “Binding of serum SARS-yellow to looped/cyclic peptides of protein X4 of SARS-CoV Urbani” value in assay [1] is recorded as 0.7. In assay [2], the “Binding of Control Serum Blood-Bank to Looped peptides” value is 0.8, the “Binding of Control serum Blood-bank to linear peptides” value is 0.7, the “Binding of Control serum LUMC to linear peptides” value is 0.7 and the “Binding of Control serum LUMC to looped peptides” value worked out at 0.8. For the same sequence, in assay [3], the “Rabbit serum linear peptides” value is reported as 0.4 and the “Rabbit serum looped peptides” value is listed as 0.4.

With LFLIVAALVFLILCF, in assay [1], the “Binding of serum 1a to linear peptides of protein X4 of SARS-CoV Urbani” value is 0.6, the “Binding of serum 1a to looped/cyclic peptides of protein X4 of SARS-CoV Urbani” value is listed as 0.8, the “Binding of serum 1b to linear peptides of protein X4 of SARS-CoV Urbani” value is on record as 0.5 and the “Binding of serum 1b to looped/cyclic peptides of protein X4 of SARS-CoV Urbani” value is listed as 0.4. Besides, in assay [1], the “Binding of serum 2 to linear peptides of protein X4 of SARS-CoV Urbani” value worked out at 0.3, the “Binding of serum 2 to looped/cyclic peptides of protein X4 of SARS-CoV Urbani” value was determined as 0.7, the “Binding of serum 6 to linear peptides of protein X4 of SARS-CoV Urbani” value was 0.4 and the “Binding of serum 6 to looped/cyclic peptides of protein X4 of SARS-CoV Urbani” value is reported as 0.3. In addition, in assay [1], the “Binding of serum 37 to linear peptides of protein X4 of SARS-CoV Urbani” value is listed as 0.6, the “Binding of serum 37 to looped/cyclic peptides of protein X4 of SARS-CoV Urbani” value amounted to 0.5, the “Binding of serum 62 to linear peptides of protein X4 of SARS-CoV Urbani” value was 0.6 and the “Binding of serum 62 to looped/cyclic peptides of protein X4 of SARS-CoV Urbani” value is listed as 0.5. Besides, in assay [1], the “Binding of serum London to linear peptides of protein X4 of SARS-CoV Urbani” value was 0.7, the “Binding of serum London to looped/cyclic peptides of protein X4 of SARS-CoV Urbani” value turned out to be 0.2, the “Binding of serum SARS-green to linear peptides of protein X4 of SARS-CoV Urbani” value was 0.6 and the “Binding of serum SARS-green to looped/cyclic peptides of protein X4 of SARS-CoV Urbani” value is on record as 0.4. Besides, in assay [1], the “Binding of serum SARS-yellow to linear peptides of protein X4 of SARS-CoV Urbani” value is listed as 0.7 and the “Binding of serum SARS-yellow to looped/cyclic peptides of protein X4 of SARS-CoV Urbani” value amounted to 0.5. Moreover, in assay [2], the “Binding of Control Serum Blood-Bank to Looped peptides” value is 0.7, the “Binding of Control serum Blood-bank to linear peptides” value turned out to be 0.5, the “Binding of Control serum LUMC to linear peptides” value is 0.4 and the “Binding of Control serum LUMC to looped peptides” value was 0.4. Moreover, in assay [3], the “Rabbit serum linear peptides” value amounted to 0.3 and the “Rabbit serum looped peptides” value was determined as 0.4.
